Test results: US20170226518A1, “COMPOSITIONS AND METHODS FOR TREATING CANCER” (Autotelic LLC, priority 2016, published 2017)
In the oligonucleotide strings, read from the 5' end, every base follows the letter of its sugar. An asterisk marks phosphorothioate; unmarked linkages are phosphodiester. Other units and linkages are bracketed, terminal groups are in braces. A string of capitals states the bases alone. d = 2'-deoxy (DNA)

How the values were obtained:
[1] = tested on: HUP-T3 pancreatic cancer cells; assay: Cellular proliferation of HUP-T3 pancreatic cancer cells in vitro; format: cell-based; conditions: 10 μM AP12009 as monotherapy
Description: (§1) The aim of the study was to determine the effect of AP12009 (trabedersen) treatment in combination with 5-Fluorouracil (5-FU) on TGFβ2 secretion and on cellular proliferation of HUP-T3 pancreatic cancer cells and WiDr colon cancer cells in vitro.
(§2) 10 μM of AP12009 as monotherapy decreased cell proliferation (53% proliferation of untreated control) and TGFβ2 expression (42% of untreated control) in HUP-T3 cells.

[2] = tested on: TGFβ2; assay: TGFβ2 secretion/expression in HUP-T3 pancreatic cancer cells; format: cell-based; conditions: 10 μM AP12009 as monotherapy
Description: as §1, §2

[3] = tested on: A-172 glioma cells; assay: Proliferation of A-172 glioma cells; format: cell-based; conditions: 7 days, treatment schedule 2*2/1*3 d
Description: A-172 glioma cells were treated with a combination of AP12009 (trabedersen) 0 to 10 μM) and different concentrations of TMZ (temozolomide) for 7 days (treatment schedule 2*2/1*3 d).
In summary there is no clear beneficial effect in combining AP12009 with TMZ in A-172 cells.

[4] = Acute single dose toxicity study in mice; format: in vivo; conditions: 1 of 10 mice died (LLD10)
Description: (§3) The clinical starting dose for the 7-days-on and 7-days-off schedule was based on the Lowest-Observed-Adverse-Effect-Level (LOAEL) devoid of severe toxicity in Cynomolgus monkeys as the most relevant species. This LOAEL of 4 mg/kg body weight (b.w.)/day is equivalent to approximately 1.3 mg/kg b.w./day or 48 mg/m^2/day on a body surface area basis in human adults. These numbers were rounded down and the safe starting dose was defined at 40 mg/m^2/day, equivalent to approximately 1 mg/kg b.w./day in humans. An alternative approach would have been based on the lowest lethal dose (LLD) of 300 mg/kg b.w. obtained in the acute single dose toxicity study in mice (in rats it was determined at 1000 mg/kg), at which 1 of 10 mice died (LLD10). According to the standard method, 10% of this dose (30 mg/kg) on a body surface area basis would then be defined as the clinical starting dose resulting in 90 mg/m^2/day. In the end, the lower of the two alternatives was chosen as starting dose.

[5] = Acute single dose toxicity in rats; format: in vivo
Description: as §3

[6] = tested on: pancreatic cancer; assay: Phase I/II study P-001: PFS and OS in pancreatic cancer patients; format: in vivo, human; conditions: for OS: pancreatic cancer; for OS (overall survival) / PFS (progression free survival): second line pancreatic cancer patients, 4 days on and 10 days off
Description: (§4) At screening, up to 10 “measurable lesions” (i.e. lesions that could be accurately measured in at least 1 dimension with a longest diameter of 2 cm) representative of all involved organs were identified as “target lesions” for tumor response assessment and were measured and documented. All other lesions were defined and recorded as “non-target lesions”. Tumor response was determined by the local investigator every 8 weeks after start of the first trabedersen cycle during follow-up visits, irrespective of whether the patient was still on treatment or off treatment. The tumor assessment was based on Response Evaluation Criteria in Solid Tumors (RECIST 1.0) criteria. The categories of overall tumor response are as follows: (1) Complete response (CR): disappearance of all target and non-target lesions and normalization of tumor marker level; (2) Partial response (PR): at least 30% decrease in the sum of the longest diameter (LD) of target lesions (baseline sum LD as reference) and/or persistence of one or more non-target lesions and/or maintenance of tumor marker level above normal limits; (3) Stable disease (SD): less than 30% decrease or less than 20% increase in sum LD target lesions (smallest sum LD since treatment start as reference) and/or persistence of one or more non-target lesions and/or maintenance of tumor marker level above normal limits; (4) Progressive disease (PD) At least 20% increase in sum LD target lesions (smallest sum LD since treatment start as reference) and/or unequivocal progression of existing nontarget lesions and/or appearance of one or more new lesions; and (5) Unknown.
(§5) Progression-free survival (PFS) was defined as the time from Day 1 until tumor progression or death from any cause. The date of progression was either the date of the image showing progression or the date of treatment termination in case one of the reasons for treatment termination was tumor progression (referring to clinical progression as assessed by the Investigator), whichever occurred first.
Overall survival (OS) was defined as the time from Day 1 until death from any cause. All patients were followed for survival during the follow-up assessments every 8 weeks. The survival status was documented at the Final Visit (Day 29) and during the 8-weekly post-treatment follow-up assessments, and was continued to be collected after study closure until database lock or until the patient was lost to follow-up.
There were […] line patients and 11 third line and beyond on the 4 days on and 10 days off regimen. The PFS/OS (progression free survival/overall survival ratio) of these second line patients in months were: 1.87/5.60 (N=6), 1.87/9.93 (N=11) and 2.72/11.80 (N=5) at increasing mean dose of 140 mg/m^2/day, 167 mg/m^2/day, and 196 mg/m^2/day, respectively. The OS of 9.93 and 11.80 are higher than the highest reported in the 65 trials reported in the literature during 1997-2015 (range=2.50-9.20/median=5.50). The corresponding PFS values were in line with reported literature (range=0.00-7.65/median=2.43). […] Trabedersen itself was not having an impact on the tumor (FIG. 1).

[7] = tested on: melanoma; assay: Phase I/II study P-001: PFS and OS in melanoma patients; format: in vivo, human
Description: as §4, §5
Overall survival (OS) was defined as the time from Day 1 until death from any cause. All patients were followed for survival during the follow-up assessments every 8 weeks. […]
The primary objective was to determine the maximum tolerated dose (MTD) and the dose-limiting toxicity (DLTs) of two cycles of trabedersen administered intravenously (i.v.) for 7 days (7 days on and 7 days off) or for 4 days every other week (4 days on and 10 days off). The secondary objectives included assessment of the potential antitumor activity of trabedersen administered i.v. at weekly intervals and for four days every other week, as assessed by survival. […]

[8] = tested on: C8161 human melanoma cells; assay: C8161 melanoma xenograft model: tumor growth and survival
Description: Sixty female athymic nude mice were intradermally inoculated with C8161 human melanoma cells and randomized into six groups of 10 mice. Three groups received monotherapy treatment with either OT-101 (trabedersen) (16 mg/kg) (Group 2) or Dacarbazine (DTIC; 1 or 10 mg/kg; Groups 3, 4). Two groups received combination therapy with OT-101/DTIC at 16/1 mg/kg or 16/10 mg/kg (Groups 5 and 6). Vehicle (0.9% saline, Groups 1, 3, and 4) and OT-101 were administered 3 times/week via subcutaneous injection. Vehicle (0.9% saline, Groups 1 and 2) and DTIC (1 or 10 mg/kg) were administered via intraperitoneal injection four times/week. All OT-101/Trabedersen treatments commenced at day 0 of the study and all DTIC treatments commenced on day 14. Mice were monitored for adverse effects, body weight and tumor size three times weekly. The tumor, lungs, liver and kidneys were excised from all mice at termination and weighed.

[9] = mean dose 167 mg/m^2/day (N=11)

Substance: trabedersen: TGFβ2 specific phosphorothioate antisense oligodeoxynucleotide with the sequence 5′-CGGCATGTCTATTTTGTA-3′ (SEQ ID No: 1) (antisense dC*dG*dG*dC*dA*dT*dG*dT*dC*dT*dA*dT*dT*dT*dT*dG*dT*dA)
- cell proliferation (% proliferation of untreated control) [1]: 53%
- TGFβ2 expression (% of untreated control) [2]: 42%
- effect on cell proliferation [3]: slightly reduced cell proliferation
- lowest lethal dose (LLD) [4]: 300 mg/kg b.w.
- lowest lethal dose (LLD) [5]: 1000 mg/kg
- overall survival (OS) rate versus dose ([6]; pancreatic cancer patients, trabedersen as second line treatment (FIG. 1)): dose dependent increase
- OS ([6]; 4/10 cohort treated with subsequent chemotherapies): 14.7 mos
- OS ([6]; 4/10 cohort without subsequent chemotherapies): 2.93 mos
- OS ([6]; chemotherapy on 2nd line followed with trabedersen 4/10 regimen as third line (N=9)): 2.80 mos
- OS ([6]; trabedersen first on 2nd line followed with subsequent therapies (N=11)): 9.93 mos
- OS (overall survival) ([6]; mean dose 140 mg/m^2/day (N=6)): 5.60 months
- PFS (progression free survival) ([6]; mean dose 140 mg/m^2/day (N=6)): 1.87 months
- OS (overall survival) [6, 9]: 9.93 months
- PFS (progression free survival) [6, 9]: 1.87 months
- OS (overall survival) ([6]; mean dose 196 mg/m^2/day (N=5)): 11.80 months
- PFS (progression free survival) ([6]; mean dose 196 mg/m^2/day (N=5)): 2.72 months
- Median progression free survival (PFS) ([7]; 15 patients): 1.77 mos
- median OS ([7]; all doses, 19 patients): 11.4 mos
- OS ([7]; trabedersen followed by subsequent chemotherapy (N=9)): 13.70 mos
- OS ([7]; without subsequent chemotherapy (N=7)): 5.5 mos
- Tumor growth suppressed relative to control group 1 ([8]; day 42, group 2: OT-101 16 mg/kg s.c. 3 times/week from day 0): 2%
- median survival ([8]; group 2: OT-101 16 mg/kg, sacrifice at tumor size 2,000 mm^3): 47 days
